The NIST ThermoML archive (doi:10.1021/je700260f)
± gives the expanded uncertainty stated by the source.

Details: 323.14 K, Liquid, Vibrating tube method

FC(C(F)(F)F)C(F)(F)F [1,1,1,2,3,3,3-heptafluoropropane] showed a mass density (7292 kPa) of 1341 ± 1.5 kg/m3, a mass density (7328 kPa) of 1341.3 ± 1.5 kg/m3 and a mass density (7350 kPa) of 1341.5 ± 1.5 kg/m3. The mass density (7375 kPa) was 1341.7 ± 1.5 kg/m3, the mass density (7395 kPa) was 1341.7 ± 1.5 kg/m3 and the mass density (7423 kPa) was 1342.1 ± 1.5 kg/m3. It also gave a mass density (7444 kPa) of 1342.2 ± 1.5 kg/m3, a mass density (7468 kPa) of 1342.4 ± 1.5 kg/m3 and a mass density (7492 kPa) of 1342.6 ± 1.5 kg/m3. It also gave a mass density (7516 kPa) of 1342.8 ± 1.5 kg/m3, a mass density (7540 kPa) of 1343.1 ± 1.5 kg/m3 and a mass density (7566 kPa) of 1343.2 ± 1.5 kg/m3. The mass density (7592 kPa) was 1343.5 ± 1.5 kg/m3, the mass density (7619 kPa) was 1343.7 ± 1.5 kg/m3 and the mass density (7640 kPa) was 1344 ± 1.5 kg/m3. For the same molecule, the mass density (7661 kPa) was 1344.2 ± 1.5 kg/m3, the mass density (7683 kPa) was 1344.2 ± 1.5 kg/m3 and the mass density (7702 kPa) was 1344.3 ± 1.5 kg/m3. The mass density (7719 kPa) was 1344.5 ± 1.5 kg/m3, the mass density (7741 kPa) was 1344.7 ± 1.5 kg/m3 and the mass density (7761 kPa) was 1344.8 ± 1.5 kg/m3. For the same molecule, the mass density (7781 kPa) was 1345 ± 1.5 kg/m3, the mass density (7801 kPa) was 1345.1 ± 1.5 kg/m3 and the mass density (7818 kPa) was 1345.3 ± 1.5 kg/m3. The mass density (7837 kPa) was 1345.4 ± 1.5 kg/m3, the mass density (7859 kPa) was 1345.7 ± 1.5 kg/m3 and the mass density (7878 kPa) was 1345.9 ± 1.5 kg/m3. For the same molecule, the mass density (7903 kPa) was 1346 ± 1.5 kg/m3, the mass density (7924 kPa) was 1346 ± 1.5 kg/m3 and the mass density (7964 kPa) was 1346.4 ± 1.5 kg/m3. For the same molecule, the mass density (8025 kPa) was 1347 ± 1.5 kg/m3, the mass density (8049 kPa) was 1347.2 ± 1.5 kg/m3 and the mass density (8068 kPa) was 1347.2 ± 1.5 kg/m3. The mass density (8087 kPa) was 1347.4 ± 1.5 kg/m3, the mass density (8101 kPa) was 1347.6 ± 1.5 kg/m3 and the mass density (8118 kPa) was 1347.7 ± 1.5 kg/m3. The mass density (8142 kPa) was 1347.8 ± 1.5 kg/m3, the mass density (8162 kPa) was 1348.1 ± 1.5 kg/m3 and the mass density (8181 kPa) was 1348.2 ± 1.5 kg/m3. The mass density (8197 kPa) was 1348.3 ± 1.5 kg/m3, the mass density (8219 kPa) was 1348.6 ± 1.5 kg/m3 and the mass density (8234 kPa) was 1348.6 ± 1.5 kg/m3. It also gave a mass density (8250 kPa) of 1348.9 ± 1.5 kg/m3, a mass density (8266 kPa) of 1348.7 ± 1.5 kg/m3 and a mass density (8284 kPa) of 1349 ± 1.5 kg/m3. For the same molecule, the mass density (8300 kPa) was 1349.3 ± 1.5 kg/m3, the mass density (8316 kPa) was 1349.2 ± 1.5 kg/m3 and the mass density (8385 kPa) was 1349.8 ± 1.5 kg/m3. The mass density (8410 kPa) was 1350.2 ± 1.5 kg/m3, the mass density (8432 kPa) was 1350.1 ± 1.5 kg/m3 and the mass density (8450 kPa) was 1350.4 ± 1.5 kg/m3. It also gave a mass density (8914 kPa) of 1353.9 ± 1.5 kg/m3, a mass density (8936 kPa) of 1354.2 ± 1.5 kg/m3 and a mass density (8952 kPa) of 1354.1 ± 1.5 kg/m3. The mass density (8977 kPa) was 1354.5 ± 1.5 kg/m3, the mass density (8991 kPa) was 1354.6 ± 1.5 kg/m3 and the mass density (9010 kPa) was 1354.7 ± 1.5 kg/m3. The mass density (9030 kPa) was 1354.9 ± 1.5 kg/m3, the mass density (9051 kPa) was 1354.9 ± 1.5 kg/m3 and the mass density (9072 kPa) was 1355.2 ± 1.5 kg/m3. For the same molecule, the mass density (9092 kPa) was 1355.3 ± 1.5 kg/m3, the mass density (9115 kPa) was 1355.4 ± 1.5 kg/m3 and the mass density (9133 kPa) was 1355.7 ± 1.5 kg/m3. The mass density (9154 kPa) was 1355.8 ± 1.5 kg/m3, the mass density (9171 kPa) was 1355.9 ± 1.5 kg/m3 and the mass density (9191 kPa) was 1356.1 ± 1.5 kg/m3. It also gave a mass density (9214 kPa) of 1356.3 ± 1.5 kg/m3, a mass density (9238 kPa) of 1356.3 ± 1.5 kg/m3 and a mass density (9264 kPa) of 1356.7 ± 1.5 kg/m3. The mass density (9290 kPa) was 1356.9 ± 1.5 kg/m3, the mass density (9305 kPa) was 1357 ± 1.5 kg/m3 and the mass density (9326 kPa) was 1357.1 ± 1.5 kg/m3. The mass density (9347 kPa) was 1357.2 ± 1.5 kg/m3, the mass density (9371 kPa) was 1357.4 ± 1.5 kg/m3 and the mass density (9389 kPa) was 1357.5 ± 1.5 kg/m3. The mass density (9411 kPa) was 1357.8 ± 1.5 kg/m3, the mass density (9432 kPa) was 1357.9 ± 1.5 kg/m3 and the mass density (9459 kPa) was 1358.1 ± 1.5 kg/m3. It also gave a mass density (9483 kPa) of 1358.2 ± 1.5 kg/m3, a mass density (9503 kPa) of 1358.4 ± 1.5 kg/m3 and a mass density (9521 kPa) of 1358.4 ± 1.5 kg/m3. For the same molecule, the mass density (9543 kPa) was 1358.6 ± 1.5 kg/m3, the mass density (9559 kPa) was 1358.9 ± 1.5 kg/m3 and the mass density (9574 kPa) was 1358.9 ± 1.5 kg/m3. For the same molecule, the mass density (9596 kPa) was 1359 ± 1.5 kg/m3, the mass density (9618 kPa) was 1359.2 ± 1.5 kg/m3 and the mass density (9639 kPa) was 1359.5 ± 1.5 kg/m3. For the same molecule, the mass density (9657 kPa) was 1359.5 ± 1.5 kg/m3, the mass density (9681 kPa) was 1359.8 ± 1.5 kg/m3 and the mass density (9700 kPa) was 1359.9 ± 1.5 kg/m3. The mass density (9913 kPa) was 1361.5 ± 1.5 kg/m3, the mass density (9929 kPa) was 1361.6 ± 1.5 kg/m3 and the mass density (9948 kPa) was 1361.8 ± 1.5 kg/m3. It also gave a mass density (9976 kPa) of 1361.9 ± 1.5 kg/m3, a mass density (9997 kPa) of 1362.1 ± 1.5 kg/m3 and a mass density (10019 kPa) of 1362.3 ± 1.5 kg/m3. The mass density (10043 kPa) was 1362.2 ± 1.5 kg/m3, the mass density (10066 kPa) was 1362.5 ± 1.5 kg/m3 and the mass density (10083 kPa) was 1362.6 ± 1.5 kg/m3. It also gave a mass density (10105 kPa) of 1362.8 ± 1.5 kg/m3, a mass density (10130 kPa) of 1363 ± 1.5 kg/m3 and a mass density (10153 kPa) of 1363.3 ± 1.5 kg/m3. It also gave a mass density (10170 kPa) of 1363.3 ± 1.5 kg/m3.
